Measurements from patent US20260256792A1, “TREATMENT OF CHRONIC SPONTANEOUS URTICARIA BY ADMINISTERING (R)-2-[3-[4-AMINO-3-(2-FLUORO-4-PHENOXY-PHENYL)PYRAZOLO[3,4-D]PYRIMIDIN-1-YL]PIPERIDINE-1-CARBONYL]-4-METHYL-4-[4-(OXETAN-3-YL)PIPERAZIN-1-YL]PENT-2-ENENITRILE” (priority 2023, published 2026).

System: angioedema in CSU patients
Test: Phase 2 CSU study: angioedema activity score over 7 days (AAS7)
Assay type: in vivo, human
Settings: for AAS7 = 0, RRD (%) for rilzabrutinib vs. placebo (95% CI) / AAS7 Post-baseline Mean (SD) / Participants with AAS7 = 0, Responder n (%) / AAS7 % Change difference for rilzabrutinib vs. placebo LS Mean (95% CI) / AAS7 Change difference for rilzabrutinib vs. placebo LS Mean (95% CI) / AAS7 Change from baseline LS Mean (SE) / AAS7 % Change from baseline LS Mean (SE) / AAS7 = 0, Non-responder n (%) / AAS7 = 0, OR (95% CI) for rilzabrutinib vs. placebo: angioedema at baseline; for Non-responder n (%), AAS7 = 0 / OR (95% CI) for rilzabrutinib vs. placebo, AAS7 = 0 / RRD (%) for rilzabrutinib vs. placebo (95% CI), AAS7 = 0 / Responder n (%), AAS7 = 0: outlier removed
Text: The study comprises a 12 week, randomized, double-blind, placebo-controlled, multi-center, dose-ranging efficacy and safety phase, followed by a 40 week open label extension (OLE) phase (see FIG. 1). The study consists of three phases and an optional OLE phase. […] The weekly angioedema activity score (AAS7) was proposed as a tertiary endpoint. […] Patients were to complete the AAS using the e-diary. The e-diary was to be used once daily on the same time of each day recording of participant's answers to the angioedema activity score over 7 days (AAS7) questionnaire.

[1] = 400 mg BID, Week 8, omalizumab-naïve
[2] = 400 mg BID, Week 9, omalizumab-naïve
[3] = 400 mg BID, Week 10, omalizumab-naïve
[4] = 400 mg BID, Week 11, omalizumab-naïve
[5] = 400 mg BID, Week 12, omalizumab-naïve
[6] = 400 mg QPM, Week 1, omalizumab-naïve
[7] = 400 mg QPM, Week 2, omalizumab-naïve
[8] = 400 mg QPM, Week 3, omalizumab-naïve
[9] = 400 mg QPM, Week 4, omalizumab-naïve

## CC(C)(C=C(C#N)C(=O)N1CCC[C@@H](n2nc(-c3ccc(Oc4ccccc4)cc3F)c3c(N)ncnc32)C1)N1CCN(C2COC2)CC1 [rilzabrutinib, (R)-2-[3-[4-amino-3-(2-fluoro-4-phenoxy-phenyl)pyrazolo[3,4-d]pyrimidin-1-yl]piperidine-1-carbonyl]-4-methyl-4-[4-(oxetan-3-yl)piperazin-1-yl]pent-2-enenitrile]
[1]
  AAS7 = 0, RRD (%) for rilzabrutinib vs. placebo (95% CI): 26.4 %
  AAS7 Post-baseline Mean (SD): 9.97 (16.69)
  Participants with AAS7 = 0, Responder n (%): 13 (50.0) n (%)
400 mg BID, Week 9, ITT
  AAS7 % Change difference for rilzabrutinib vs. placebo LS Mean (95% CI): −26.88 (−56.35, 2.58) %
  AAS7 Change difference for rilzabrutinib vs. placebo LS Mean (95% CI): −11.25 (−21.79, −0.72)
  AAS7 Change from baseline LS Mean (SE): −40.70 (4.08)
  AAS7 Post-baseline Mean (SD): 10.00 (17.78)
[2]
  Non-responder n (%), AAS7 = 0: 18 (51.4) n (%)
  OR (95% CI) for rilzabrutinib vs. placebo, AAS7 = 0: 0.919
  RRD (%) for rilzabrutinib vs. placebo (95% CI), AAS7 = 0: −2.1 %
  Responder n (%), AAS7 = 0: 17 (48.6) n (%)
  AAS7 % Change from baseline LS Mean (SE): −74.80 (12.27) %
  AAS7 = 0, Non-responder n (%): 14 (53.8) n (%)
  AAS7 = 0, OR (95% CI) for rilzabrutinib vs. placebo: 1.787
  AAS7 = 0, RRD (%) for rilzabrutinib vs. placebo (95% CI): 14.5 %
  AAS7 Post-baseline Mean (SD): 10.87 (18.30)
  Participants with AAS7 = 0, Responder n (%): 12 (46.2) n (%)
400 mg BID, Week 10, ITT
  AAS7 % Change difference for rilzabrutinib vs. placebo LS Mean (95% CI): −15.09 (−55.38, 25.21) %
  AAS7 % Change from baseline LS Mean (SE): −64.07 (15.65) %
  AAS7 Change difference for rilzabrutinib vs. placebo LS Mean (95% CI): −8.79 (−20.40, 2.82)
  AAS7 Change from baseline LS Mean (SE): −39.12 (4.47)
  AAS7 Post-baseline Mean (SD): 12.72 (19.89)
[3]
  Non-responder n (%), AAS7 = 0: 19 (54.3) n (%)
  OR (95% CI) for rilzabrutinib vs. placebo, AAS7 = 0: 0.945
  RRD (%) for rilzabrutinib vs. placebo (95% CI), AAS7 = 0: −1.4 %
  Responder n (%), AAS7 = 0: 16 (45.7) n (%)
  AAS7 % Change from baseline LS Mean (SE): −60.11 (16.65) %
  AAS7 = 0, Non-responder n (%): 15 (57.7) n (%)
  AAS7 = 0, OR (95% CI) for rilzabrutinib vs. placebo: 1.734
  AAS7 = 0, RRD (%) for rilzabrutinib vs. placebo (95% CI): 13.1 %
  AAS7 Post-baseline Mean (SD): 13.93 (20.43)
  Participants with AAS7 = 0, Responder n (%): 11 (42.3) n (%)
400 mg BID, Week 11, ITT
  AAS7 % Change difference for rilzabrutinib vs. placebo LS Mean (95% CI): −23.43 (−51.36, 4.50) %
  AAS7 % Change from baseline LS Mean (SE): −84.81 (10.85) %
  AAS7 Change difference for rilzabrutinib vs. placebo LS Mean (95% CI): −8.17 (−19.55, 3.20)
  AAS7 Change from baseline LS Mean (SE): −42.03 (4.41)
  AAS7 Post-baseline Mean (SD): 10.31 (18.47)
[4]
  Non-responder n (%), AAS7 = 0: 14 (40.0) n (%)
  OR (95% CI) for rilzabrutinib vs. placebo, AAS7 = 0: 1.516
  RRD (%) for rilzabrutinib vs. placebo (95% CI), AAS7 = 0: 10.4 %
  Responder n (%), AAS7 = 0: 21 (60.0) n (%)
  AAS7 = 0, Non-responder n (%): 13 (50.0) n (%)
  AAS7 = 0, OR (95% CI) for rilzabrutinib vs. placebo: 2.010
  AAS7 = 0, RRD (%) for rilzabrutinib vs. placebo (95% CI): 17.8 %
  AAS7 Post-baseline Mean (SD): 11.30 (19.07)
  Participants with AAS7 = 0, Responder n (%): 13 (50.0) n (%)
400 mg BID, Week 12, ITT
  AAS7 % Change from baseline LS Mean (SE): −87.51 (10.12) %
  AAS7 Change difference for rilzabrutinib vs. placebo LS Mean (95% CI): −7.07 (−17.69, 3.54)
  AAS7 Change from baseline LS Mean (SE): −42.38 (4.13)
  AAS7 Post-baseline Mean (SD): 10.67 (17.53)
[5]
  patients with angioedema score (AAS7) of 0: 42.3%
  Non-responder n (%), AAS7 = 0: 18 (51.4) n (%)
  OR (95% CI) for rilzabrutinib vs. placebo, AAS7 = 0: 0.925
  RRD (%) for rilzabrutinib vs. placebo (95% CI), AAS7 = 0: −1.9 %
  Responder n (%), AAS7 = 0: 17 (48.6) n (%)
  AAS7 = 0, Non-responder n (%): 15 (57.7) n (%)
  AAS7 = 0, OR (95% CI) for rilzabrutinib vs. placebo: 1.627
  AAS7 = 0, RRD (%) for rilzabrutinib vs. placebo (95% CI): 11.3 %
  AAS7 Change difference for rilzabrutinib vs. placebo LS Mean (95% CI): −8.14 (−19.74, 3.45)
  AAS7 Change from baseline LS Mean (SE): −41.53 (4.39)
  AAS7 Post-baseline Mean (SD): 11.73 (18.07)
  Participants with AAS7 = 0, Responder n (%): 11 (42.3) n (%)
400 mg BID, within one week of initiating treatment, omalizumab-naïve
  patients achieving angioedema score (AAS7) of 0: 42.3%
400 mg QPM, Week 1, ITT
  AAS7 % Change difference for rilzabrutinib vs. placebo LS Mean (95% CI): −12.18 (−42.38, 18.02) %
  AAS7 % Change from baseline LS Mean (SE): −32.14 (9.37) %
  AAS7 Change difference for rilzabrutinib vs. placebo LS Mean (95% CI): −5.18 (−18.04, 7.67)
  AAS7 Change from baseline LS Mean (SE): −19.68 (3.99)
  AAS7 Post-baseline Mean (SD): 34.57 (21.50)
[6]
  Non-responder n (%), AAS7 = 0: 24 (64.9) n (%)
  OR (95% CI) for rilzabrutinib vs. placebo, AAS7 = 0: 1.428
  RRD (%) for rilzabrutinib vs. placebo (95% CI), AAS7 = 0: 8.1 %
  Responder n (%), AAS7 = 0: 13 (35.1) n (%)
  AAS7 % Change difference for rilzabrutinib vs. placebo LS Mean (95% CI): −14.70 (−47.27, 17.88) %
  AAS7 % Change from baseline LS Mean (SE): −31.74 (9.84) %
  AAS7 = 0, OR (95% CI) for rilzabrutinib vs. placebo: 3.545
  AAS7 = 0, RRD (%) for rilzabrutinib vs. placebo (95% CI): 9.1 %
  AAS7 Change difference for rilzabrutinib vs. placebo LS Mean (95% CI): −5.57 (−19.34, 8.21)
  AAS7 Change from baseline LS Mean (SE): −19.33 (4.16)
  AAS7 Post-baseline Mean (SD): 34.85 (21.86)
400 mg QPM, Week 2, ITT
  AAS7 % Change difference for rilzabrutinib vs. placebo LS Mean (95% CI): 4.26 (−27.23, 35.76) %
  AAS7 Change from baseline LS Mean (SE): −21.54 (4.19)
  AAS7 Post-baseline Mean (SD): 32.95 (23.02)
[7]
  Non-responder n (%), AAS7 = 0: 24 (64.9) n (%)
  OR (95% CI) for rilzabrutinib vs. placebo, AAS7 = 0: 0.875
  RRD (%) for rilzabrutinib vs. placebo (95% CI), AAS7 = 0: −3.3 %
  Responder n (%), AAS7 = 0: 13 (35.1) n (%)
  AAS7 % Change difference for rilzabrutinib vs. placebo LS Mean (95% CI): 0.88 (−32.86, 34.63) %
  AAS7 % Change from baseline LS Mean (SE): −36.33 (12.38) %
  AAS7 = 0, OR (95% CI) for rilzabrutinib vs. placebo: 0.514
  AAS7 = 0, RRD (%) for rilzabrutinib vs. placebo (95% CI): −9.2 %
  AAS7 Post-baseline Mean (SD): 33.25 (23.40)
400 mg QPM, Week 3, ITT
  AAS7 % Change difference for rilzabrutinib vs. placebo LS Mean (95% CI): 15.17 (−24.59, 54.94) %
  AAS7 % Change from baseline LS Mean (SE): −33.35 (14.94) %
  AAS7 Change difference for rilzabrutinib vs. placebo LS Mean (95% CI): 2.33 (−9.09, 13.74)
  AAS7 Change from baseline LS Mean (SE): −21.82 (4.29)
  AAS7 Post-baseline Mean (SD): 32.48 (20.51)
[8]
  Non-responder n (%), AAS7 = 0: 25 (67.6) n (%)
  OR (95% CI) for rilzabrutinib vs. placebo, AAS7 = 0: 1.041
  RRD (%) for rilzabrutinib vs. placebo (95% CI), AAS7 = 0: 0.9 %
  Responder n (%), AAS7 = 0: 12 (32.4) n (%)
  AAS7 % Change difference for rilzabrutinib vs. placebo LS Mean (95% CI): 14.44 (−28.58, 57.46) %
  AAS7 % Change from baseline LS Mean (SE): −33.23 (15.73) %
  AAS7 = 0, Non-responder n (%): 23 (85.2) n (%)
  AAS7 = 0, OR (95% CI) for rilzabrutinib vs. placebo: 0.686
  AAS7 = 0, RRD (%) for rilzabrutinib vs. placebo (95% CI): −5.0 %
  AAS7 Post-baseline Mean (SD): 32.60 (20.89)
  Participants with AAS7 = 0, Responder n (%): 4 (14.8) n (%)
400 mg QPM, Week 4, ITT
  AAS7 % Change difference for rilzabrutinib vs. placebo LS Mean (95% CI): −12.88 (−48.34, 22.58) %
  AAS7 % Change from baseline LS Mean (SE): −49.47 (13.21) %
  AAS7 Change difference for rilzabrutinib vs. placebo LS Mean (95% CI): −2.68 (−13.70, 8.35)
  AAS7 Change from baseline LS Mean (SE): −25.28 (4.12)
  AAS7 Post-baseline Mean (SD): 29.42 (20.30)
[9]
  Non-responder n (%), AAS7 = 0: 23 (62.2) n (%)
  OR (95% CI) for rilzabrutinib vs. placebo, AAS7 = 0: 0.874
  RRD (%) for rilzabrutinib vs. placebo (95% CI), AAS7 = 0: −3.0 %
  Responder n (%), AAS7 = 0: 14 (37.8) n (%)
  AAS7 % Change difference for rilzabrutinib vs. placebo LS Mean (95% CI): −19.26 (−57.48, 18.97) %
  AAS7 % Change from baseline LS Mean (SE): −49.19 (13.84) %
